{
  "source": "patent US20240279183A1",
  "about": "“COMPOUNDS AND PHARMACEUTICAL COMPOSITIONS FOR USE IN NEURODEGENERATIVE DISORDERS” (Universiteit Hasselt, priority 2021, published 2024)",
  "key": {"[1]": {"system": "Primary mouse oligodendrocyte precursor cells (OPCs)", "experiment": "OPC differentiation (in vitro), O4 and MBP staining", "assay_type": "cell-based", "conditions": "for OPC differentiation towards oligodendrocytes: nanomolar ranges", "experimental": "Primary mouse oligodendrocyte precursor cells (OPCs) were isolated from p0 C57bl6 pups using the shake off method at day 0 (FIG. 1). […] Primary OPCs (150,000 cells/condition) were cultured and stimulated with vehicle (0.1% DMSO) or different concentration of RICE (3 nM, 10 nM, 30 nM, 100 nM, 300 nM, 1000 nM) in 0.1% DMSO. Treatment was repeated on day 2 and day 4, applying a 40% medium change. Cells were fixated at day 6 and stained for O4, a late OPC marker, and MBP, an oligodendrocyte marker. […] The increased expression of O4 declined from 100 nM RICE onwards."}, "[2]": {"system": "Male wild type C57bl6 mice fed cuprizone", "experiment": "Visual evoked potentials after cuprizone diet (in vivo)", "set-up": "species or system mouse", "conditions": "0.1 mg/kg or 0.3 mg/kg subcutaneous twice a day, remyelination phase, compared to vehicle", "experimental": "Male wild type C57bl6 mice were fed regular chow (n=6) or 0.3% (w/w)cuprizone (n=21) for 6 weeks to […]. Afterwards, cuprizone was removed and recovery was allowed. Two days before ceasing the cuprizone diet, until the end of the experiment, animals received twice a day subcutaneous injections consisting of 0.1% DMSO in 0.5% methylcellulose solution with either vehicle (no cuprizone and vehicle group; n=6 and n=8 respectively), 0.1 mg/kg RICE (n=7) or 0.3 mg/kg RICE (n=6) (FIG. 3). […] After either three or four days after ceasing the cuprizone diet, visual evoked potential were measured to evaluate optic tract and nerve signaling (groups equally divided over testing days). Epidermal VEP was recorded in response to flash stimulation (3 trains of 20 stimuli, 10 us duration, 1 Hz frequency) from both eyes. […] A one-way ANOVA with Kruskall Wallis multiple comparison test was conducted to evaluate statistical significances (*p≤0.05; **p<0.01, ****p<0.001)."}, "[3]": {"system": "Mouse cerebellar brain slices", "experiment": "Myelination in lysolecithin-demyelinated brain slices (ex vivo)", "assay_type": "cell-based", "conditions": "1 μM, 10 days", "experimental": "Mouse cerebellar brain slices (350 μm) were made from the cerebellum of p10 C57bl6 pups. After 4 days in culture, slices were demyelinated using 0.5 mg/ml lysolecithin (18 h) and subsequently treated for 10 days with 1 μM RICE (in 0.1% DMSO) (FIG. 2)."}, "[4]": {"system": "young adult C57BL/6J-OlaHsd mice", "experiment": "Object location task (OLT), 24h intertrial interval", "assay_type": "in vivo, mouse", "experimental": "Mice received a subcutaneous injection with vehicle (0.1% DMSO in 2% Tween80 and 0.5% methylcellulose), roflumilast 0.03 mg/kg as a positive control, or RICE01 (0.00003 mg/kg-0.3 mg/kg) 3h after the first learning trial of the 24h interval OLT."}},
  "note": "Entries after “also recorded” stand apart in the source; their conditions may differ.",
  "data": [
    {"smiles": "Oc1cc(-c2ccn(CC(O)CN3CCOCC3)n2)ccc1OC(F)F", "note": "(stereo not shown) [RICE01]", "values": [
      {"measurement": "MBP expression (oligodendrocyte marker)", "setting": "[1]; 3-1000 nM, day 6", "value": "dose dependently increased"},
      {"measurement": "O4 expression (late OPC marker)", "setting": "[1]; 3-1000 nM, treatment day 0, 2, 4, fixated day 6", "value": "increased with the lower concentrations"},
      {"measurement": "concentration from which the increased expression of O4 declined", "setting": "[1]; day 6", "value": "≥ 100", "unit": "nM"},
      {"measurement": "concentration of maximal MBP expression", "setting": "[1]; day 6", "value": 30, "unit": "nM"},
      {"measurement": "concentration of maximal O4 expression increase", "setting": "[1]; day 6", "value": 10, "unit": "nM"},
      {"measurement": "OPC differentiation towards oligodendrocytes", "setting": "[1]", "value": "induces OPC differentiation and myelin production"},
      {"measurement": "OPC differentiation towards oligodendrocytes", "setting": "[1]; listed as RICE", "value": "boosts OPC differentiation towards oligodendrocytes; also recorded: boosted OPC differentiation; also recorded: stimulated the differentiation of oligodendrocytes"},
      {"measurement": "visual evoked potential latency", "setting": "[2]", "value": "decreased latency times"},
      {"measurement": "(re)myelination (myelination index / MBP expression)", "setting": "[3]", "value": "improved (re)myelination"},
      {"measurement": "D2 value versus zero (one-sample t-test)", "setting": "[4]; 0.00003 mg/kg subcutaneous", "value": "significantly higher than zero"},
      {"measurement": "D2 value versus zero (one-sample t-test)", "setting": "[4]; 0.0001 mg/kg subcutaneous", "value": "significantly higher than zero"},
      {"measurement": "d2 index compared with vehicle treatment (Dunnett's)", "setting": "[4]; 0.0001 mg/kg subcutaneous", "value": "significantly higher d2 index"},
      {"measurement": "D2 value versus zero (one-sample t-test)", "setting": "[4]; 0.0003 mg/kg subcutaneous", "value": "significantly higher than zero"},
      {"measurement": "D2 value versus zero (one-sample t-test)", "setting": "[4]; 0.001 mg/kg subcutaneous", "value": "significantly higher than zero"},
      {"measurement": "D2 value versus zero (one-sample t-test)", "setting": "[4]; 0.01 mg/kg subcutaneous", "value": "significantly higher than zero"},
      {"measurement": "D2 value versus zero (one-sample t-test)", "setting": "[4]; 0.03 mg/kg subcutaneous", "value": "significantly higher than zero"},
      {"measurement": "D2 value versus zero (one-sample t-test)", "setting": "[4]; 0.1 mg/kg subcutaneous", "value": "significantly higher than zero"},
      {"measurement": "d2 index compared with vehicle treatment (Dunnett's)", "setting": "[4]; 0.1 mg/kg subcutaneous", "value": "significantly higher d2 index"},
      {"measurement": "discrimination index (D2) in the object location task", "setting": "[4]; subcutaneous, 0.00003 mg/kg-0.3 mg/kg, 3h after first learning trial", "value": "increases"}
    ]}
  ]
}
